The test concerns the target T1, human adenosine A1 receptor (Homo sapiens, UniProt P30542).
T1 construct: expressed in transfected cells; host or cells: CHO cells (CHOhA1R), gift of Prof; S. J. Hill; membrane preparation
T1 sequence (P30542 1-326): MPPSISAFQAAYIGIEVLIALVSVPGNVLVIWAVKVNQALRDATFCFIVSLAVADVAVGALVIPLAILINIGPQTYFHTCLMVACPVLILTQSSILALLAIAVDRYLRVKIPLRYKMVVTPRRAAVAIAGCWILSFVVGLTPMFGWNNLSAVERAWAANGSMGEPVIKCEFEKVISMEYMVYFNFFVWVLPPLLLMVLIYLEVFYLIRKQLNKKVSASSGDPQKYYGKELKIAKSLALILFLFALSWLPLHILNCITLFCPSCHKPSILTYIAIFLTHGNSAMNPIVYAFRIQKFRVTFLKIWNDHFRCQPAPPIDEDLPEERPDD
Kind of test: Radioligand displacement assay, human adenosine A1 receptor ([3H]DPCPX, CHOhA1R membranes). The settings on record: for inhibition at 10 µM: test compound 10 µM; for inhibition at 10 µM / Ki / A1 displacement at 1 µM: n = 3; for A1 displacement at 1 µM: footnote a: test compound 1 µM. Format: binding. As for the experimental part:
Chinese hamster ovary (CHO) cells stably expressing the human adenosine A1 receptor (CHOhA1R) were kindly provided by Prof. S. J. Hill and CHO cells stably expressing the human adenosine A3 receptor (CHOhA3R) were a gift from Dr. K.-N. Klotz (University of Würzburg, Germany). Chinese hamster ovary cells stably expressing the human A1-receptor (CHOhA1R) or the human A3-receptor (CHOhA3R) were grown in Dulbecco’s Modified Eagle’s Medium (DMEM) and Ham’s F12 medium (1:1) supplemented with 10% (v/v) newborn calf serum, 50 µg/mL streptomycin, 50 IU/mL penicillin, and 200 µg/mL G418 at 37 °C and 5% CO2. […] All cells were grown to 80–90% confluency and detached from plates by scraping them into 5 mL phosphate-buffered saline. Detached cells were collected and centrifuged at 200 g for 5 min. Pellets derived from 100 15 cm Ø plates were pooled and resuspended in 70 mL of ice-cold 50 mM tris(hydroxymethyl)aminomethane (Tris)-HCl buffer, pH 7.4. A Heidolph Diax 900 homogenizer was used to homogenize the cell suspension. Membranes and the cytosolic fraction were separated by centrifugation at 100,000 g in a Beckman Optima LE-80 K ultracentrifuge (Beckman Coulter, Fullerton, CA, USA) at 4 °C for 20 min. The pellet was resuspended in 35 mL of the Tris-HCl buffer, and the homogenization and centrifugation steps were repeated. Tris-HCl buffer (25 mL) was used to resuspend the pellet, and adenosine deaminase (ADA) was added (0.8 U/mL) to break down endogenous adenosine. Membranes were stored in 250 µL and 500 µL aliquots at −80 °C. Total protein concentrations were measured using the bicinchoninic acid (BCA) method.
A1 Receptor: Membrane aliquots containing 5 µg (CHOhA1R) protein were incubated in a total volume of 100 µL assay buffer (50 mM Tris-HCl, pH 7.4) at 25 °C for 1 h. […] Nonspecific binding was determined in the presence of 100 µM N^6-cyclopentyladenosine (CPA). Incubations were terminated by rapid vacuum filtration to separate the bound and free radioligand through prewetted 96-well GF/B filter plates using a PerkinElmer Filtermate-harvester (Perkin Elmer, Groningen, the Netherlands). Filters were subsequently washed 12 times with ice-cold 50 mM Tris-HCl, pH 7.4.
The plates of all four adenosine receptor assays were dried at 55 °C after which MicroscintTM-20-cocktail was added (Perkin Elmer, Groningen, The Netherlands).
All experimental data were analyzed using the non-linear regression curve fitting program GraphPad Prism 7.0 (GraphPad Software Inc., San Diego, CA, USA). IC50 values obtained from competition displacement binding data were converted into Ki values using the Cheng–Prusoff equation.

Setting [1] is: footnote a: tested at 1 µM, read-out: A1 Ki (bound, footnote a).

Where two headings read alike, the source gives them in different places.

For the compound `CSc1nc(N(Cc2ccccc2)Cc2ccccc2)c2ncn([C@H]3[C@H](O)[C@H](O)[C@]4(CCl)C[C@H]34)c2n1` [Compound 31, (1S,2R,3S,4R,5S)-4-[6-(Dibenzylamino)-2-methylthio-9H-purin-9-yl]-1-(chloromethyl)bicyclo[3.1.0]hexane-2,3-diol], the inhibition – broadly, the relative decrease from the control value, in per cent – at 10 µM was found to be 21%.

For `CSc1nc(N)c2ncn([C@H]3[C@H](O)[C@H](O)[C@]4(Cn5cc(C(=O)O)nn5)C[C@H]34)c2n1` [Compound 44, 1-{[(1R,2R,3S,4R,5S)-4-(6-Amino-2-methylthio-9H-purin-9-yl)-2,3-dihydroxybicyclo[3.1.0]hex-1-yl]methyl}-1H-1,2,3-triazole-4-carboxylic acid], the Ki (usually the equilibrium dissociation constant of an inhibitor or competing ligand from its target) under setting [1] is above 1000 nM.

With `Nc1ncnc2c1ncn2[C@H]1[C@H](O)[C@H](O)[C@]2(CO)C[C@H]12` [Compound 36, (N)-methanocarba adenosine], the Ki ([3H]DPCPX, read-out: A1 Ki ± SEM) came out at 6100 ± 460 nM. For the same compound, the “fold lower affinity towards A1 receptor than A3” value (relative to A3 Ki) is given as 6 fold.

With `COC(=O)Cc1cn(C[C@@]23C[C@@H]2[C@@H](n2cnc4c(N)nc(SC)nc42)[C@H](O)[C@@H]3O)nn1` [Compound 41, Methyl 2-(1-{[(1R,2R,3S,4R,5S)-4-(6-amino-2-methylthio-9H-purin-9-yl)-2,3-dihydroxybicyclo[3.1.0]hex-1-yl]methyl}-1H-1,2,3-triazol-4-yl)acetate], the “A1 displacement at 1 µM” value worked out at 2% ^a.

Take `CSc1nc(N)c2ncn([C@H]3[C@H](O)[C@H](O)[C@]4(Cn5cc(CCC(=O)O)nn5)C[C@H]34)c2n1` [Compound 46]: the Ki under setting [1] is above 1000 nM.

`CSc1nc(N(Cc2ccccc2)Cc2ccccc2)c2ncn([C@H]3[C@H](O)[C@H](O)[C@]4(CO)C[C@H]34)c2n1` [Compound 30, (1R,2R,3S,4R,5S)-4-[6-(Dibenzylamino)-2-methylthio-9H-purin-9-yl]-1-(hydroxymethyl)bicyclo[3.1.0]hexane-2,3-diol] returned an inhibition at 10 µM of 30%.

With `CCN(CC)CC.CSc1nc(N)c2ncn([C@H]3[C@H](O)[C@H](O)[C@]4(CNS(=O)(=O)CC(=O)O)C[C@H]34)c2n1` [Compound 48, Triethylammonium 2-(N-{[(1R,2R,3S,4R,5S)-4-(6-amino-2-methylthio-9H-purin-9-yl)-2,3-dihydroxybicyclo[3.1.0]hex-1-yl]methyl}sulfamoyl)acetate], the “A1 displacement at 1 µM” value came to 3% ^a.

For `COC(=O)c1cn(C[C@@]23C[C@@H]2[C@@H](n2cnc4c(N)nc(SC)nc42)[C@H](O)[C@@H]3O)nn1` [Compound 40, Methyl 1-{[(1R,2R,3S,4R,5S)-4-(6-amino-2-methylthio-9H-purin-9-yl)-2,3-dihydroxybicyclo[3.1.0]hex-1-yl]methyl}-1H-1,2,3-triazole-4-carboxylate], testing at 10 µM gave an inhibition of 7%.

Compound `CSc1nc(N)c2ncn([C@H]3[C@H](O)[C@H](O)[C@]4(Cn5cc(CN)nn5)C[C@H]34)c2n1` [Compound 43, (1R,2R,3S,4R,5S)-4-(6-Amino-2-methylthio-9H-purin-9-yl)-1-{[4-(aminomethyl)-1H-1,2,3-triazol-1-yl]methyl}bicyclo[3.1.0]hexane-2,3-diol] gave an inhibition at 10 µM of 5%.

With `CSc1nc(N)c2ncn([C@H]3[C@H](O)[C@H](O)[C@]4(Cn5cc(CC(=O)O)nn5)C[C@H]34)c2n1` [Compound 45, 2-(1-{[(1R,2R,3S,4R,5S)-4-(6-Amino-2-methylthio-9H-purin-9-yl)-2,3-dihydroxybicyclo[3.1.0]hex-1-yl]methyl}-1H-1,2,3-triazol-4-yl)acetic acid], the Ki under setting [1] was above 1000 nM.

For the compound `CSc1cc(NCc2ccccc2)c2ncn([C@H]3[C@H](O)[C@H](O)[C@]4(CO)C[C@H]34)c2n1` [Compound 14, (1R,2R,3S,4R,5S)-4-[7-(Benzylamino)-5-methylthio-3H-imidazo[4,5-b]pyridin-3-yl]-1-(hydroxymethyl)bicyclo[3.1.0]hexane-2,3-diol], the inhibition at 10 µM is 20%.

As to `CCN(CC)CC.CSc1nc(N)c2ncn([C@H]3[C@H](O)[C@H](O)[C@]4(CNc5c(O)c(=O)c5=O)C[C@H]34)c2n1` [Compound 47, Triethylammonium 2-{[(1R,2R,3S,4R,5S)-4-(6-Amino-2-methylthio-9H-purin-9-yl)-2,3-dihydroxybicyclo[3.1.0]hex-1-yl]methyl}amino-3,4-dioxocyclobut-1-en-1-olate], the “A1 displacement at 1 µM” value was 1% ^a.

`COc1ccc(CNc2cc(Cl)nc3c2ncn3[C@H]2[C@H](O)[C@H](O)[C@]3(CO)C[C@H]23)cc1` [Compound 15, (1R,2R,3S,4R,5S)-4-{5-Chloro-7-[(4-methoxy)benzylamino]-3H-imidazo[4,5-b]pyridin-3-yl}-1-(hydroxymethyl)bicyclo[3.1.0]hexane-2,3-diol] registered an inhibition at 10 µM of 12%.

`OC[C@@]12C[C@@H]1[C@@H](n1cnc3c(NCc4ccccc4)cc(Cl)nc31)[C@H](O)[C@@H]2O` [Compound 13, (1R,2R,3S,4R,5S)-4-[7-(Benzylamino)-5-chloro-3H-imidazo[4,5-b]pyridin-3-yl]-1-(hydroxymethyl)bicyclo[3.1.0]hexane-2,3-diol] had an inhibition at 10 µM of 25%.

`Nc1cc(Cl)nc2c1ncn2[C@H]1[C@H](O)[C@H](O)[C@]2(CO)C[C@H]12` [Compound 16, (1R,2R,3S,4R,5S)-4-(7-Amino-5-chloro-3H-imidazo[4,5-b]pyridin-3-yl)-1-(hydroxymethyl)bicyclo[3.1.0]hexane-2,3-diol]: the inhibition at 10 µM was 32%.

In turn, `OC[C@@]12C[C@@H]1[C@@H](n1cnc3c(N(Cc4ccccc4)Cc4ccccc4)ncnc31)[C@H](O)[C@@H]2O` [Compound 26, (1R,2R,3S,4R,5S)-4-[6-(Dibenzylamino)-9H-purin-9-yl]-1-(hydroxymethyl)bicyclo[3.1.0]hexane-2,3-diol] showed an inhibition at 10 µM of 25%.

Regarding `OC[C@@]12C[C@@H]1[C@@H](n1cnc3c(N(Cc4ccccc4)Cc4ccccc4)nc(Cl)nc31)[C@H](O)[C@@H]2O` [Compound 27, (1R,2R,3S,4R,5S)-4-[6-(Dibenzylamino)-2-chloro-9H-purin-9-yl]-1-(hydroxymethyl)bicyclo[3.1.0]hexane-2,3-diol], at 10 µM the inhibition was 15%.

Consider `CSc1nc(N)c2ncn([C@H]3[C@H](O)[C@H](O)[C@]4(Cn5cc(CO)nn5)C[C@H]34)c2n1` [Compound 39, (1R,2R,3S,4R,5S)-4-(6-Amino-2-methylthio-9H-purin-9-yl)-1-{[4-(hydroxymethyl)-1H-1,2,3-triazol-1-yl]methyl}bicyclo[3.1.0]hexane-2,3-diol], for which the inhibition at 10 µM stood at 5%.

Regarding `COC(=O)CCc1cn(C[C@@]23C[C@@H]2[C@@H](n2cnc4c(N)nc(SC)nc42)[C@H](O)[C@@H]3O)nn1` [Compound 42, Methyl 3-(1-{[(1R,2R,3S,4R,5S)-4-(6-amino-2-methylthio-9H-purin-9-yl)-2,3-dihydroxybicyclo[3.1.0]hex-1-yl]methyl}-1H-1,2,3-triazol-4-yl)propanoate], testing at 10 µM gave an inhibition of 19%.

For the origin of these results see article PMC9000336, “Development of Bicyclo[3.1.0]hexane-Based A3 Receptor Ligands: Closing the Gaps in the Structure–Affinity Relationships” (Molecules, 2022).
